Reference: publication PMC5845353, “The selective cathepsin K inhibitor MIV-711 attenuates joint pathology in experimental animal models of osteoarthritis” (Journal of Translational Medicine, 2018)
Marks after values point to notes of the source that are not given here.

How the values were obtained:
[1] = system: dogs subjected to partial medial meniscectomy; test: Dog partial medial meniscectomy study, osteophyte measurement and grades; format: in vivo
Description: Osteophytes for each compartment were measured (basal endochondral ossification to surface of cartilage cap) and severity grades assigned according to the following: […]

[2] = system: rabbits subjected to anterior cruciate ligament transection (ACLT); test: Rabbit ACLT study, µCT of trabecular bone; format: in vivo
Source text: The animals were acquired following review and approval by the Institutional Animal Care and Use Committee (IACUC) at Numira (Salt Lake City, UT). The protocol was also reviewed and approved by the IACUC at Ibex Preclinical Research Inc. (Logan, UT). Male, New Zealand White rabbits (n = 32) were purchased from the Western Oregon Rabbit Co. (Philomath, OR). The animals were approximately 9 months old, weighed 3.7–4.5 kg at the start of the experiment and were randomized into four treatment groups based on body weight.
Pre-operative butorphanol (0.5–1.0 mg/kg, i.m.) for analgesia and glycopyrrolate (~ 0.1 mg/kg i.m.) were administered up to 15 min prior to induction. Anesthesia was induced by a mixture of ketamine (20–40 mg/kg, i.m.) and xylazine (5–10 mg/kg, i.m.), followed by placement of an endotracheal tube. General anesthesia was maintained with isoflurane. Perioperative cefazolin (40 mg/kg, i.v.) was administered, and […] (0.2 mg/kg, i.v.) was administered to reverse the effects of xylazine after endotracheal intubation was complete. A fentanyl patch (25 µg/h) was placed on a clipped area of the skin to provide post-operative analgesia. An incision of 1.5–2.5 cm was made in the skin over the medial side of the right knee under aseptic conditions. The patella was dislocated laterally and the knee placed in full flexion. The anterior cruciate ligament (ACL) was visualized and transected with an appropriate blade. In sham animals, the ACL was visualized but not transected. The joint was irrigated with sterile saline and closed. The muscle and skin were closed with suture and/or surgical glue. Butorphanol (0.5–1 mg/kg, i.m.) was administered after extubation to provide supplemental analgesia. The animals were then individually housed in stainless steel or plastic cages.
Starting 1 week after sham operation or ACLT, animals were dosed daily for 7 weeks by oral gavage with either MIV-711 (synthesized by Medivir and given as a suspension in 1% Methocel A4C in water) or vehicle (1% Methocel A4C in water) at a dose volume of 4 mL/kg. The four treatment groups (n = 7 in each group) were: (1) sham + vehicle; (2) ACLT + vehicle; (3) ACLT + MIV-711, 30 µmol/kg (low dose) and (4) ACLT + MIV-711, 100 µmol/kg (high dose).
Femora and tibias from all animals were subjected to µCT scanning without and with contrast reagent, to visualize bone and cartilage, respectively. Samples were scanned on a high-resolution, volumetric µCT scanner (μCT40, ScanCo Medical, Zurich, CH). The image data was acquired with the following parameters: 36 μm isotropic voxel resolution at 300 ms exposure time, 2000 views and 1 frame per view. Each sample was scanned twice, once for acquiring bone data and once for soft tissue data. After the bone scans, the knees were stained using hexabrix for contrast-enhanced imaging of the cartilage. The µCT-generated DICOM files were used to analyze the samples and to create volume renderings of the regions of interest (ROI). The raw data files were converted into a file format compatible with the segmentation software VHLab (Numira). VHLab was used for segmenting out the regions of interest (osteophyte, cartilage, and subchondral bone) for the femur and tibia of each sample. A region spanning 9 mm of the articulating surface of the femur and 6.5 mm of the tibia was selected for segmenting out the cartilage and subchondral bone in the anterior–posterior direction. After the segmentation process, the voxel count associated with each of the regions of interest was calculated using VHLab. The voxel count was then multiplied by the cubic voxel resolution to obtain volume measurements for the different ROI. Cartilage thickness was calculated using SCIRun (Scientific Computing and Imaging Institute, University of Utah). The distance from the bone to the outer surface of the articulating cartilage was calculated. An image was generated that translates the distances into a color map for viewing the thickness along the length of the cartilage. […]

[3] = Femur Lateral, high dose 100 µmol/kg
[4] = Femur Lateral, low dose 30 µmol/kg
[5] = Femur Medial, high dose 100 µmol/kg
[6] = Femur Medial, low dose 30 µmol/kg
[7] = Tibia Lateral, high dose 100 µmol/kg
[8] = Tibia Lateral, low dose 30 µmol/kg
[9] = Tibia Medial, high dose 100 µmol/kg
[10] = Tibia Medial, low dose 30 µmol/kg

`C#C[C@@H]1CN(C(=O)[C@H](CC(C)C)NC(=O)c2ccc(-c3nc(N4CCN(C)CC4)sc3F)cc2)[C@@H]2C(=O)CO[C@H]12` [MIV-711] was tested, and the “Osteophyte Score” value ([1]; MIV-711 group mean) was 0.00, the “Osteophyte Measure” value ([1]; individual dogs of MIV-711 group) was 0 µm and the “Osteophyte Score” value ([1]; individual dogs of MIV-711 group, mean of 3 sections) was 0.00. For the same molecule, the Bone surface [2, 3] was 101.7 ± 2.9 mm^2, the Bone surface/volume [2, 3] was 18.7 ± 0.8 1/mm and the Connective density [2, 3] was 11.90 ± 1.51 1/mm^3. It also gave a Structure model index [2, 3] of 0.63 ± 0.11, a Tissue mineral density [2, 3] of 673.6 ± 7.0 mgHA/ccm and a Trabecular bone volume [2, 3] of 5.5 ± 0.2 mm^3. The Trabecular number [2, 3] was 2.55 ± 0.10 1/mm, the Trabecular separation [2, 3] was 0.40 ± 0.02 mm and the Trabecular thickness [2, 3] was 0.19 ± 0.01 mm. The Bone surface [2, 4] was 101.2 ± 4.3 mm^2, the Bone surface/volume [2, 4] was 19.9 ± 1.3 1/mm and the Connective density [2, 4] was 13.51 ± 1.54 1/mm^3. For the same molecule, the Structure model index [2, 4] was 0.73 ± 0.15, the Tissue mineral density [2, 4] was 669.6 ± 8.4 mgHA/ccm and the Trabecular bone volume [2, 4] was 5.3 ± 0.5 mm^3. For the same molecule, the Trabecular number [2, 4] was 2.58 ± 0.16 1/mm, the Trabecular separation [2, 4] was 0.40 ± 0.03 mm and the Trabecular thickness [2, 4] was 0.18 ± 0.01 mm. For the same molecule, the Bone surface [2, 5] was 105.2 ± 1.3 mm^2, the Bone surface/volume [2, 5] was 15.1 ± 1.0 1/mm and the Connective density [2, 5] was 9.14 ± 0.63 1/mm^3. It also gave a Structure model index [2, 5] of 0.40 ± 0.07, a Tissue mineral density [2, 5] of 699.1 ± 10.3 mgHA/ccm and a Trabecular bone volume [2, 5] of 7.2 ± 0.5 mm^3. The Trabecular number [2, 5] was 3.71 ± 0.68 1/mm, the Trabecular separation [2, 5] was 0.30 ± 0.03 mm and the Trabecular thickness [2, 5] was 0.22 ± 0.02 mm. For the same molecule, the Bone surface [2, 6] was 105.6 ± 3.8 mm^2, the Bone surface/volume [2, 6] was 16.0 ± 1.6 1/mm and the Connective density [2, 6] was 11.42 ± 1.61 1/mm^3. It also gave a Structure model index [2, 6] of 0.48 ± 0.07, a Tissue mineral density [2, 6] of 698.4 ± 15.7 mgHA/ccm and a Trabecular bone volume [2, 6] of 7.0 ± 0.7 mm^3. For the same molecule, the Trabecular number [2, 6] was 3.02 ± 0.20 1/mm, the Trabecular separation [2, 6] was 0.34 ± 0.02 mm and the Trabecular thickness [2, 6] was 0.22 ± 0.03 mm. The Bone surface [2, 7] was 152.7 ± 4.1 mm^2, the Bone surface/volume [2, 7] was 14.9 ± 0.5 1/mm and the Connective density [2, 7] was 16.25 ± 2.01 1/mm^3. For the same molecule, the Structure model index [2, 7] was 0.42 ± 0.11, the Tissue mineral density [2, 7] was 707.0 ± 6.6 mgHA/ccm and the Trabecular bone volume [2, 7] was 10.3 ± 0.4* mm^3. The Trabecular number [2, 7] was 3.01 ± 0.16 1/mm, the Trabecular separation [2, 7] was 0.34 ± 0.02 mm and the Trabecular thickness [2, 7] was 0.22 ± 0.01 mm. For the same molecule, the Bone surface [2, 8] was 153.6 ± 4.1 mm^2, the Bone surface/volume [2, 8] was 16.0 ± 1.2 1/mm and the Connective density [2, 8] was 16.55 ± 1.95 1/mm^3. For the same molecule, the Structure model index [2, 8] was 0.51 ± 0.12, the Tissue mineral density [2, 8] was 700.8 ± 10.6 mgHA/ccm and the Trabecular bone volume [2, 8] was 9.9 ± 0.7 mm^3. The Trabecular number [2, 8] was 2.96 ± 0.15 1/mm, the Trabecular separation [2, 8] was 0.34 ± 0.02 mm and the Trabecular thickness [2, 8] was 0.21 ± 0.01 mm. For the same molecule, the Bone surface [2, 9] was 124.9 ± 4.6 mm^2, the Bone surface/volume [2, 9] was 13.2 ± 0.2 1/mm and the Connective density [2, 9] was 8.47 ± 0.69 1/mm^3. It also gave a Structure model index [2, 9] of 0.41 ± 0.10, a Tissue mineral density [2, 9] of 726.9 ± 5.5 mgHA/ccm and a Trabecular bone volume [2, 9] of 9.5 ± 0.5 mm^3. The Trabecular number [2, 9] was 2.09 ± 0.15 1/mm, the Trabecular separation [2, 9] was 0.50 ± 0.04 mm and the Trabecular thickness [2, 9] was 0.26 ± 0.00 mm. The Bone surface [2, 10] was 124.9 ± 3.3 mm^2, the Bone surface/volume [2, 10] was 14.6 ± 1.2 1/mm and the Connective density [2, 10] was 9.20 ± 1.08 1/mm^3. For the same molecule, the Structure model index [2, 10] was 0.52 ± 0.16, the Tissue mineral density [2, 10] was 714.1 ± 13.1 mgHA/ccm and the Trabecular bone volume [2, 10] was 8.9 ± 0.7 mm^3. The Trabecular number [2, 10] was 2.05 ± 0.08 1/mm, the Trabecular separation [2, 10] was 0.49 ± 0.02 mm and the Trabecular thickness [2, 10] was 0.25 ± 0.02 mm. For the same molecule, the “trabecular bone volume, lateral tibia, difference vs. sham” value ([2]; low dose 30 µmol/kg) was -8%.
